| SMILES | melting point [°C] |
| --- | --- |
| CCOC(=O)CS(=O)(=O)c1cc(NS(=O)(=O)c2cccs2)c2ccccc2c1O | 154 to 156 |
| COc1ccccc1NS(=O)(=O)c1ccc([N+](=O)[O-])cc1 | 96 to 98 |
| CCOC(=O)c1c(C)nn(C)c1CS(=O)(=O)NC(=O)Nc1nc(OC)cc(OC)n1 | 190 |
| ICCCCCOc1ccc(C2=C(c3ccccc3)CCCc3cc(OC4CCCCO4)ccc32)cc1 (stereo not given) | 109 to 111 |
| Cc1ccc2c(OCCCl)c3ccccc3c(OCCCl)c2c1 | 82 to 85 |
| OCC1CCC2=C(Cc3ccccc32)C1CN1CCCCC1CO (stereo not given) | 151 to 159 |
| Nc1ccc(S(=O)(=O)c2cc(-c3ccccc3F)nc(N3CCCC3)c2)cc1 | 246 to 248 |
| CNc1nc(-c2cncc(Br)c2)c2cc(OC)c(OC)cc2n1 | 228 to 230 |
| CNc1nc(C)c(-c2ccnc(Nc3ccc(N4CCN(C(C)=O)CC4)cc3)n2)s1 | 213 to 214 |
| CCCCCCS(=O)(=O)c1nn2c(=O)cc(-c3ccccc3)nc2s1 | 131 to 134 |
| COc1cc(S(C)=O)c(C)cc1OCC(C)=O (stereo not given) | 104 to 106 |
| COC(=O)C(=O)c1ccc(OCCOc2ccc3cccnc3c2)cc1 | 92 to 94 |
| COc1ccc(S(=O)(=O)NC(C)c2ccccc2-c2cc(F)ccc2F)cc1 (stereo not given) | 143 to 144 |
| CCOC(=O)c1cnc2cc(Cl)ccc2c1Cl | 81 to 82 |
| CC1(C)Oc2c(cc(Cl)c3oc(C(=O)O)cc(=O)c23)-c2ccc([N+](=O)[O-])cc21 | 278 to 279 |
| Cc1cn(C2COC(CO)C(O)C2)c(=O)[nH]c1=O (stereo not given) | 87 to 89 |
| CN1c2ccc(-c3ccccc3)cc2S(=O)(=O)c2cc(-c3ccccc3)ccc21 | 242 to 245 |
| CCCCCCNC(=O)OC1CCN(C(=O)Oc2ccc(Oc3ccc(OC)cc3)cc2)CC1 | 91 to 93 |
| Cc1ccc2c(Sc3cc(Cl)cc(Cl)c3)c(CCCC(N)=O)[nH]c2c1 | 163 to 164 |
| CC(C)OC(=O)COc1ccc(C(=O)CN2CCN(c3ccncc3)CC2)cc1 | 64 to 66 |
| CN1CCN(S(=O)(=O)c2ccc(Nc3ncnc4cc(Cl)ccc34)cc2)CC1 | 237 to 239 |
| Cc1ncccc1Oc1ccc(NC(=O)N2CCc3c(n(C)c4ccccc34)CC2)cn1 | 159 to 160 |
| O=c1c2cc(F)c(N3CCCC3)nc2n(-c2ccc(C(F)(F)F)cc2)c(=O)n1OCc1ccccc1 | 231 to 233 |
| CSc1nccc(NC(N)=NCC(F)(F)F)n1 | 201 to 202 |
| N#Cc1cc(F)c(-n2ncc(=O)[nH]c2=O)cc1F | > 250 |

| SMILES | melting point [°C] |
| --- | --- |
| O=COC(CCl)(CC(Cl)(Cl)Cl)c1cc(Cl)cc(Cl)c1 (stereo not given) | 115 to 117 |
| O=C(O)CCCCCc1nc2ccccc2s1 | 71 to 72 |
| CC1=C(C(=O)c2ccc3c(c2)CCN(C(N)=O)C3)C(C)(C)CCC1 | 86.4 to 87.6 |
| O=CNCc1ccc2[nH]cc(CCCN3C(=O)c4ccccc4C3=O)c2c1 | 150 to 152 |
| C=CCn1c(S)nc2c(cnn2C)c1=O | 171 to 174 |
| Cc1cc2c(N3CCc4ccc(Cl)cc43)ncnc2cn1 | 232 to 234 |
| CCCCC1=NSc2ccccc2N1Cc1ccc(-c2ccccc2C(=O)O)cc1 | 215 to 217 |
| O=C1NCCNc2c1cccc2[N+](=O)[O-] | 191 to 195 |
| CCCOCCOc1ccc(-c2ccc3c(c2)C=C(C(=O)O)CCCN3CCC)cc1 | 202 to 204 |
| CC(=O)Nc1nc2c(c(=O)[nH]1)CCC(O)N2C(C)=O (stereo not given) | 202 to 205 |
| NC(=O)c1cnc2c([N+](=O)[O-])cccc2c1Cl | 277 to 279 |
| O=Cc1ccnc2c1NC(=O)c1cccnc1N2C1CC1 | 220 to 222 |
| O=C(O)CCN1C(=O)CSC1=S | 155 to 156 |
| Cc1cccc(/C=C/C2=CCN(Cc3c[nH]c4ncccc34)CC2)c1 | 210 to 212 |
| CCCCCCCCCCCCCCOc1ccc(NC(=O)c2cccc(CBr)c2)cc1 | 140 to 142 |
| Cc1ccc(-c2cc(F)c(F)cc2-c2ccc(S(N)(=O)=O)cc2)cc1 | 103 to 104 |
| CCOC(=O)Nc1ccc(CN2OCC(C)(C)C2=O)c(Cl)c1 | 162 to 164 |
| CC(C)(C)c1c(Cl)nc(OCc2ccccc2)nc1OCc1ccccc1 | 96 |
| CN(C)S(=O)(=O)N(c1ccc(C(=O)Nc2ccc(Br)cc2)cc1)C1OC(=O)c2ccccc21 (stereo not given) | 244 to 246 |
| CCSc1nc(-c2ccc(O)cc2)cn1C | 210 |
| COC(=O)c1cccc(CC#N)c1[N+](=O)[O-] | 77 to 80 |
| CCOc1cc(N)c(Cl)cc1C(=O)NC1CCN(CC2CCN(C(=S)N(C)C)CC2)CC1 | 210 to 212 |
| CCOc1ccc(S(=O)(=O)N2CCN(C)CC2)cc1-c1nc2c(COC)nn(C)c2c(=O)[nH]1 | 198 to 199 |
| O=C1CN(c2ccccc2)C(=O)N1C1CCCCC1 | 196 |
| CC(C)(C)NC(=O)c1nn(-c2ccc(F)cc2F)c2c1[C@@H]1CC[C@@]2(C)C1(C)C | 161 to 163 |
